According to patent US9505734B2, “Phenyl C-glucoside derivative containing deoxyglucose structure, preparation method and use thereof” (Tianjin Institute of Pharmaceutical Research, priority 2012, dated 2016):
pIC50: −log10 of the molar value.

Test system: not listed separately
Assay: influencing factors test: light stability
Assay type: physicochemical
Conditions: two-week stability test under light, higher temperature, higher humidity
Text: The appearance, number of impurity and the amount of impurity (measured by HPLC) are compared with that of day 0.

Compound	storage stability (in words)
CCOc1ccc(Cc2cc(C3OC(C)C(O)C(O)C3O)ccc2Cl)cc1 [cocrystal of I-D1-6 and L-proline, cocrystal of (1S)-1-[4-chloro-3-(4-ethoxybenzyl)phenyl]-1,6-dideoxy-D-glucose (I-D1-6) and L-proline]	good storage stability

Same assay, conditions: two-week stability test under light, higher temperature, higher humidity; listed as cocrystal

Compound	storage stability (in words)
CCOc1ccc(Cc2cc(C3OC(C)C(O)C(O)C3O)ccc2Cl)cc1 [cocrystal of I-D1-6 and L-proline, cocrystal of (1S)-1-[4-chloro-3-(4-ethoxybenzyl)phenyl]-1,6-dideoxy-D-glucose (I-D1-6) and L-proline]	better storage stability

Test system: SD rats (type 2 diabetes model)
Assay: model for rat urine glucose excretion (glucose-oxidase method)
Assay type: in vivo
Conditions: type 2 diabetes model SD rats, 6 mg/kg intragastrically, glucose 2 g/kg at 0.5 h, urine 0-12 h
Protocol: The health SD rats are injected intraperitoneally with multiple low doses of streptozotocin for modeling (type 2 diabetes model) after feeding with high-fat and high-sucrose diet, and the content of blood glucose is measured before and after modeling. After the modeling successful, the rats for modeling are randomly divided (8 rats/group) into one blank group (administering the same volume of 0.5% CMC sodium solution) and several groups for compounds to be tested (6 mg/kg) according to the content of 24-hour urine glucose and the body weight. Rats in each group are fasted for 16 hours before experiment. The experimental rats are administered intragastrically with glucose (2 g/kg) at 0.5 h after intragastrical administration with compounds to be tested. The urine is collected at the time-period of 0-12 h after administration, and the urine glucose values are measured at each time-period by glucose-oxidase method.
The inhibiting activity of the cocrystal of I-D1-6 and L-proline on SGLT2 is measured by the model for rat urine glucose excretion.
The health SD rats are injected intraperitoneally with multiple low doses of streptozotocin for modeling (type 2 diabetes model) after feeding with high-fat and high-sucrose diet for one month, and the content of blood glucose is measured before and after modeling. After the modeling successful, the rats for modeling are randomly divided (8 rats/group) into one blank group (administering the same volume of 0.5% CMC sodium solution) and groups of tested compound (6 mg/kg) according to the content of 24-hour urine glucose and the body weight. Rats in each group are fasted for 16 hours before experiment. The experimental rats are administered intragastrically with the glucose (2 g/kg) at 0.5 h after intragastrical administration with the cocrystal of I-D1-6 and L-proline prepared in Example 138. The urine is collected at the time-period of 0-12 h after administration, and the urine glucose values are measured at each time-period by glucose-oxidase method.

Compound	urine glucose production
CCOc1ccc(Cc2cc(C3OC(C)C(O)C(O)C3O)ccc2Cl)cc1 [cocrystal of I-D1-6 and L-proline, cocrystal of (1S)-1-[4-chloro-3-(4-ethoxybenzyl)phenyl]-1,6-dideoxy-D-glucose (I-D1-6) and L-proline]	912 mg urine glucose/200 g body weight

Biological target: hSGLT1 (Homo sapiens (Human), UniProt P13866)
Sequence (P13866 whole entry): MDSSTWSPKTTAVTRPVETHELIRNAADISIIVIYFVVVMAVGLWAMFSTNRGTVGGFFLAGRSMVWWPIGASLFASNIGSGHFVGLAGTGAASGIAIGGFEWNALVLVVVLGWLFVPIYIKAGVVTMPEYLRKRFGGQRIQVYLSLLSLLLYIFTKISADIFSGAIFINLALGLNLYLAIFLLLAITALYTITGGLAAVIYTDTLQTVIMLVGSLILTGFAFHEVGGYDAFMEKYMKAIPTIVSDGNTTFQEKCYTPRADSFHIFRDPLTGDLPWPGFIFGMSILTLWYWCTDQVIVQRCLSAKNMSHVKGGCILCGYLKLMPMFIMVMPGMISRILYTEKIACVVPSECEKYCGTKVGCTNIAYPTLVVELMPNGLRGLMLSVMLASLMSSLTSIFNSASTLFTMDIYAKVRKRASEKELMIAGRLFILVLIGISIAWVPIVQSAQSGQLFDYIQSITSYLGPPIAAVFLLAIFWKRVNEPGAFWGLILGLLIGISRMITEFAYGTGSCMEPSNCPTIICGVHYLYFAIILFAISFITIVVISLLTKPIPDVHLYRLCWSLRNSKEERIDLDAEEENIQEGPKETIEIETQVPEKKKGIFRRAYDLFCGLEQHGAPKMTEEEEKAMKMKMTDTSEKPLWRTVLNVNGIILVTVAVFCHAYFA
Assay: IC50 of inhibition on SGLT1
Assay type: cell-based
Conditions: Table 3

Compound	pIC50
CCOc1ccc(Cc2cc(C3OC(C)C(O)C(O)C3O)ccc2C)cc1 (stereo not shown) [drawing 310]	6.73
COc1ccc(Cc2cc(C3OC(C)C(O)C(O)C3O)ccc2Cl)cc1 (stereo not shown) [drawing 308]	7.07
CCOc1ccc(Cc2cc(C3OC(C)C(O)C(O)C3O)ccc2Cl)cc1 (stereo not shown) [drawing 309]	6.60

Test system: Mice;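 further: mice weighing 18–20 g, both sexes in equal proportion within each group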
Assay: not given
Conditions: both, mouse, in vivo, 750 mg/kg, 1 week

Compound	Behaviors after administration with the compound to be tested (deaths)
OCC1OC(c2ccc(F)c(Cc3cc4ccccc4s3)c2)C(O)C(O)C1O (stereo not shown) [drawing 265]	7 dead

Same assay, conditions: mice, 10 mice/group, single intragastric dose 750 mg/kg, within one week

Compound	Behaviors after administration with the compound to be tested (deaths)
CC1OC(c2ccc(Cl)c(Cc3ccc(O[C@H]4CCOC4)cc3)c2)C(O)C(O)C1O (stereo partly shown) [drawing 286]	1 dead
CCOc1ccc(Cc2cc([C@]34OC[C@](CO)(O3)[C@@H](O)C[C@H]4O)ccc2Cl)cc1 [drawing 304]	3 dead
CCc1ccc(Cc2c(Cl)ccc3c2COC32CC(O)C(O)C(CO)O2)cc1 (stereo not shown) [drawing 290]	2 dead
Cc1ccc(C2OC(CO)C(O)C(O)C2O)cc1Cc1ccc(-c2ccc(F)cc2)s1 (stereo not shown) [drawing 275]	9 dead
CCc1ccc(Cc2c(Cl)ccc3c2COC32CC(O)CC(CO)O2)cc1 (stereo not shown) [drawing 296]	1 dead
OCC1CCC(O)C(c2ccc(Cl)c(Cc3ccc(O[C@H]4CCOC4)cc3)c2)O1 (stereo partly shown) [drawing 306]	2 dead
COc1ccc(Cc2cc(C3OC(C)C(O)C(O)C3O)ccc2Cl)cc1 (stereo not shown) [drawing 278]	7 dead
CCOc1ccc(Cc2cc(C3CC(O)C(O)C(CO)O3)ccc2Cl)cc1 (stereo not shown) [drawing 270]	2 dead
CCCOc1ccc(Cc2cc(C3OC(C)C(O)C(O)C3O)ccc2Cl)cc1 (stereo not shown) [drawing 268]	6 dead
CCOc1ccc(Cc2cc([C@]34OC[C@](CO)(O3)[C@@H](O)[C@H](O)[C@H]4O)ccc2Cl)cc1 [drawing 267]	9 dead
CCOc1ccc(Cc2cc(C3OC(C)CC(O)C3O)ccc2Cl)cc1 (stereo not shown) [drawing 294]	1 dead
CCc1ccc(Cc2c(Cl)ccc3c2COC32OC(CO)C(O)CC2O)cc1 (stereo not shown) [drawing 288]	5 dead
OCC1OC(c2ccc(F)c(Cc3cc4ccccc4s3)c2)CC(O)C1O (stereo not shown) [drawing 285]	3 dead
Cc1ccc(C2OC(C)C(O)CC2O)cc1Cc1ccc(-c2ccc(F)cc2)s1 (stereo not shown) [drawing 305]	0 dead
OCC1OC(c2ccc(Cl)c(Cc3ccc(O[C@H]4CCOC4)cc3)c2)CC(O)C1O (stereo partly shown) [drawing 287]	2 dead
OCC1CC(O)C(O)C(c2ccc(F)c(Cc3cc4ccccc4s3)c2)O1 (stereo not shown) [drawing 284]	1 dead
Cc1ccc(C2OC(C)C(O)C(O)C2O)cc1Cc1ccc(-c2ccc(F)cc2)s1 (stereo not shown) [drawing 281]	4 dead
Cc1ccc(C2CC(O)C(O)C(CO)O2)cc1Cc1ccc(-c2ccc(F)cc2)s1 (stereo not shown) [drawing 272]	5 dead
OCC1OC(c2ccc(Cl)c(Cc3ccc(O[C@H]4CCOC4)cc3)c2)C(O)C(O)C1O (stereo partly shown) [drawing 276]	7 dead

Compound	Behaviors after administration with the compound to be tested (deaths)
Cc1ccc(C2OC(CO)CC(O)C2O)cc1Cc1ccc(-c2ccc(F)cc2)s1 (stereo not shown) [drawing 271]	3 dead
CCOc1ccc(Cc2cc(C3CC(O)C(O)C(CO)S3)c(OC)cc2C)cc1 (stereo not shown) [drawing 291]	3 dead
CCOc1ccc(Cc2cc(C3OC(CO)C(O)C(O)C3O)ccc2Cl)cc1 (stereo not shown) [drawing 264]	8 dead
CCOc1ccc(Cc2cc([C@]34C[C@@H](O)[C@H](O)[C@](CO)(CO3)O4)ccc2Cl)cc1 [drawing 303]	2 dead
CCOc1ccc(Cc2cc(C3SC(CO)C(O)CC3O)c(OC)cc2C)cc1 (stereo not shown) [drawing 300]	0 dead
CCc1ccc(Cc2c(Cl)ccc3c2COC32OC(C)C(O)C(O)C2O)cc1 (stereo not shown) [drawing 299]	3 dead
CC1OC(c2ccc(F)c(Cc3cc4ccccc4s3)c2)C(O)C(O)C1O (stereo not shown) [drawing 273]	2 dead
CCOc1ccc(Cc2cc(C3OC(CO)C(O)CC3O)ccc2Cl)cc1 (stereo not shown) [drawing 280]	3 dead
CCOc1ccc(Cc2cc([C@]34OC[C@](C)(O3)[C@@H](O)[C@H](O)[C@H]4O)ccc2Cl)cc1 [drawing 292]	3 dead
CCc1ccc(Cc2c(Cl)ccc3c2COC32OC(CO)CC(O)C2O)cc1 (stereo not shown) [drawing 298]	5 dead
CCOc1ccc(Cc2cc(C3SC(CO)CC(O)C3O)c(OC)cc2C)cc1 (stereo not shown) [drawing 289]	1 dead
CCc1ccc(Cc2c(Cl)ccc3c2COC32OC(CO)C(O)C(O)C2O)cc1 (stereo not shown) [drawing 266]	7 dead
CCOc1ccc(Cc2cc(C3OC(C)C(O)C(O)C3O)ccc2Cl)cc1 (stereo not shown) [drawing 279]	1 dead
OCC1OC(c2ccc(Cl)c(Cc3ccc(O[C@H]4CCOC4)cc3)c2)C(O)CC1O (stereo partly shown) [drawing 274]	0 dead
CCOc1ccc(Cc2cc(C3SC(CO)C(O)CC3O)c(OC)cc2C)cc1 (stereo not shown) [drawing 301]	3 dead
OCC1OC(c2ccc(F)c(Cc3cc4ccccc4s3)c2)C(O)CC1O (stereo not shown) [drawing 283]	0 dead
CC1OC(c2ccc(F)c(Cc3cc4ccccc4s3)c2)CC(O)C1O (stereo not shown) [drawing 295]	1 dead
Cc1ccc(C2OC(CO)C(O)CC2O)cc1Cc1ccc(-c2ccc(F)cc2)s1 (stereo not shown) [drawing 282]	3 dead
CCOc1ccc(Cc2cc(C3OC(CO)CC(O)C3O)ccc2Cl)cc1 (stereo not shown) [drawing 269]	2 dead

Biological target: hSGLT2 (Homo sapiens (Human), UniProt P31639)
Sequence (P31639 whole entry): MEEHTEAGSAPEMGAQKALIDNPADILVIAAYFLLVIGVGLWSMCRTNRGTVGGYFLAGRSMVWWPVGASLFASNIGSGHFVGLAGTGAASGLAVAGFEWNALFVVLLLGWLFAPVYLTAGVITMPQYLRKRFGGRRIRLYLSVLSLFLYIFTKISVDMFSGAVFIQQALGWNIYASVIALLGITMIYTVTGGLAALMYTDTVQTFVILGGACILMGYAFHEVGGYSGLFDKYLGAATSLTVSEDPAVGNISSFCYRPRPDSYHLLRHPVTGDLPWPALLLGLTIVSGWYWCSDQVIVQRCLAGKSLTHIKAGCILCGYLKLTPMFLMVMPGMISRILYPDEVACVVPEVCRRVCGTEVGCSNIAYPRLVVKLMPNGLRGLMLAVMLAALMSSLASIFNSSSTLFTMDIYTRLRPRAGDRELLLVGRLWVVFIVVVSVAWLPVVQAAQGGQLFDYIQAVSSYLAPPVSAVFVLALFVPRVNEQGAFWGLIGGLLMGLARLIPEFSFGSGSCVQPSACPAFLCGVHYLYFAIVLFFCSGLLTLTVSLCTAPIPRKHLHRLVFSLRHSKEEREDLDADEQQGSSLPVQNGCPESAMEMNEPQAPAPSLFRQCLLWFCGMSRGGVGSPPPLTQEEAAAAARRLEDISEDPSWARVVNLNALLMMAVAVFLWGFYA
Assay: IC50 of inhibition on SGLT2
Assay type: cell-based
Conditions: Table 3

Compound	pIC50	Seletivity IC50 (hSGLT1)/IC50 (hSGLT2)
CCOc1ccc(Cc2cc(C3OC(C)C(O)C(O)C3O)ccc2C)cc1 (stereo not shown) [drawing 310]	8.11	24
COc1ccc(Cc2cc(C3OC(C)C(O)C(O)C3O)ccc2Cl)cc1 (stereo not shown) [drawing 308]	8.48	26
CCOc1ccc(Cc2cc(C3OC(C)C(O)C(O)C3O)ccc2Cl)cc1 (stereo not shown) [drawing 309]	9.17	374

Same assay, conditions: Table 4, cocrystal prepared in Example 138

Compound	Selectivity IC50 (hSGLT1)/IC50 (hSGLT2)
CCOc1ccc(Cc2cc(C3OC(C)C(O)C(O)C3O)ccc2Cl)cc1 [cocrystal of I-D1-6 and L-proline, cocrystal of (1S)-1-[4-chloro-3-(4-ethoxybenzyl)phenyl]-1,6-dideoxy-D-glucose (I-D1-6) and L-proline]	375
